Data published in publication PMC8333425, “Discovery of a dual Ras and ARF6 inhibitor from a GPCR endocytosis screen” (Nature Communications, 2021).

Key:
Test in all cases: KINOMEscan kinase binding assay
[1] = biological target: T1, 384 kinases from the human genome (Homo sapiens, UniProt O00329); conditions: kinase PIK3CD (Entrez PIK3CD)
T1 construct: purchased Eurofin/DiscoverX
In short: (§1)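 A panel of 384 human kinases was profiled by KINOMEscan binding in the presence of 10 µM compound. Kinase–ligand binding was given as percent of DMSO control, averaged from duplicates in a single run, with an S(10) selectivity score.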

[2] = biological target: T2, 384 kinases from the human genome (Homo sapiens, UniProt O75116); conditions: kinase ROCK2 (Entrez ROCK2)
T2 construct: purchased Eurofin/DiscoverX
In short: as §1

[3] = biological target: T3, 384 kinases from the human genome (Homo sapiens, UniProt P06213); conditions: kinase INSR (Entrez INSR)
T3 construct: purchased Eurofin/DiscoverX
In short: as §1

[4] = biological target: T4, 384 kinases from the human genome (Homo sapiens, UniProt P07949); conditions: kinase RET (Entrez RET)
T4 construct: purchased Eurofin/DiscoverX
In short: as §1

[5] = biological target: T5, 384 kinases from the human genome (Homo sapiens, UniProt P10721)
T5 construct: purchased Eurofin/DiscoverX
T5 sequence (P10721 26-976): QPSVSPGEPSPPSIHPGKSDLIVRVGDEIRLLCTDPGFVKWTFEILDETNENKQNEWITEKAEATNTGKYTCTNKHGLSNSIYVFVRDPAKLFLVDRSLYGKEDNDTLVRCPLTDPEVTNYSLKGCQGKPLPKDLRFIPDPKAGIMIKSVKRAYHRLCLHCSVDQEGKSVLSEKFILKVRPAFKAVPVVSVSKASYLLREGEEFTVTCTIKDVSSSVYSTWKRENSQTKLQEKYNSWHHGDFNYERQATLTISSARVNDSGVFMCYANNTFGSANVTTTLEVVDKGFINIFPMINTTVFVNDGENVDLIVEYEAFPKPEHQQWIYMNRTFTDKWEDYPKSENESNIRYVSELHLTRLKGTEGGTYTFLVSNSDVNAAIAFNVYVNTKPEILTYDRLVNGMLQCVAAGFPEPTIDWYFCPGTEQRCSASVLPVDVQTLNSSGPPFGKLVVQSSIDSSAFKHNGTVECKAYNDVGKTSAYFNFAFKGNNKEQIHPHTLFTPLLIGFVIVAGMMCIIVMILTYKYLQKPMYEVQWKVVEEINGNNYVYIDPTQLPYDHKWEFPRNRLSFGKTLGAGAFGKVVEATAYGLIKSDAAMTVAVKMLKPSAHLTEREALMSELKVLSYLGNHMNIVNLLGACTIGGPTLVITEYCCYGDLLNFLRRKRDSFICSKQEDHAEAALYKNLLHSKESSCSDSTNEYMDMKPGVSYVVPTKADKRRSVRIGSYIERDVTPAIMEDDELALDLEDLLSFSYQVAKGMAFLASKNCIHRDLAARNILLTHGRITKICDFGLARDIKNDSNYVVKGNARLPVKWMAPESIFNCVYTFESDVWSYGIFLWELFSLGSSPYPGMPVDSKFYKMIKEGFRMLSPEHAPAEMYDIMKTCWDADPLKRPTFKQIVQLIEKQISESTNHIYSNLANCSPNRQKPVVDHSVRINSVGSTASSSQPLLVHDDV
In short: as §1

[6] = biological target: T6, 384 kinases from the human genome (Homo sapiens, UniProt P41240); conditions: kinase CSK (Entrez CSK)
T6 construct: purchased Eurofin/DiscoverX
T6 sequence (P41240 whole entry): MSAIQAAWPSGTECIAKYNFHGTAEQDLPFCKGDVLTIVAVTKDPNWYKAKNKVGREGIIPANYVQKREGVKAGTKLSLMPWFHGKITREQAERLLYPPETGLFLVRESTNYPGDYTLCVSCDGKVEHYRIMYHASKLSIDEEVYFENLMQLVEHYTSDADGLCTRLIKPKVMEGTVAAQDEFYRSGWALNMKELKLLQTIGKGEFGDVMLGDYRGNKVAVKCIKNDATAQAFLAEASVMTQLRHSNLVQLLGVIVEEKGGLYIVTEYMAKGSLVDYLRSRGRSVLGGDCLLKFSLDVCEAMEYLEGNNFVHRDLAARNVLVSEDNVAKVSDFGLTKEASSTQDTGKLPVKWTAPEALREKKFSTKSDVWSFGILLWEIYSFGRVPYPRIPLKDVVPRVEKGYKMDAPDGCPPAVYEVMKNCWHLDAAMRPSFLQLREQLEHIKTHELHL
In short: as §1

[7] = biological target: T7, 384 kinases from the human genome (Homo sapiens, UniProt P43403); conditions: kinase ZAP70 (Entrez ZAP70)
T7 construct: purchased Eurofin/DiscoverX
T7 sequence (P43403 whole entry): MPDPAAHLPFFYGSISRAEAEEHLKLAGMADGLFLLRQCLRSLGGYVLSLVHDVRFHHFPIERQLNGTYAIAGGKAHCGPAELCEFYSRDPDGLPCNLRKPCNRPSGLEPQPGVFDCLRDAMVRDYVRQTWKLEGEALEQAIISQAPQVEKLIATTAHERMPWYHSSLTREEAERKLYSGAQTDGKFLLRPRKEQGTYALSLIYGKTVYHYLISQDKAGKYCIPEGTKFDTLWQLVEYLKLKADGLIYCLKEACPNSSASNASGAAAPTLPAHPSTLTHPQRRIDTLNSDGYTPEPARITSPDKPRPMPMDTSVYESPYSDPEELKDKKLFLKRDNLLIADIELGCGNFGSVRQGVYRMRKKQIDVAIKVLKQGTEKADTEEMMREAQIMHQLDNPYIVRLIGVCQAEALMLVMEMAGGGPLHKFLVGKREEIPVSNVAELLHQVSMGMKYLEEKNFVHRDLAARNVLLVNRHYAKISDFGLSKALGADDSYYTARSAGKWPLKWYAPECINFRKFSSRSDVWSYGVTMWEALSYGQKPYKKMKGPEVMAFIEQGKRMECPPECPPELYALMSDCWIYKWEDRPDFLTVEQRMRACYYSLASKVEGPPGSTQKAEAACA
In short: as §1

[8] = biological target: T8, 384 kinases from the human genome (Homo sapiens, UniProt P48730); conditions: kinase CSNK1D (Entrez CSNK1D)
T8 construct: purchased Eurofin/DiscoverX
In short: as §1

[9] = biological target: T9, 384 kinases from the human genome (Homo sapiens, UniProt P49760); conditions: kinase CLK2 (Entrez CLK2)
T9 construct: purchased Eurofin/DiscoverX
In short: as §1

[10] = biological target: T10, 384 kinases from the human genome (Homo sapiens, UniProt Q08881); conditions: kinase ITK (Entrez ITK)
T10 construct: purchased Eurofin/DiscoverX
In short: as §1

[11] = biological target: T11, 384 kinases from the human genome (Homo sapiens, UniProt Q13237); conditions: kinase PRKG2 (Entrez PRKG2)
T11 construct: purchased Eurofin/DiscoverX
In short: as §1

[12] = biological target: T12, 384 kinases from the human genome (Homo sapiens, UniProt Q13873); conditions: kinase BMPR2 (Entrez BMPR2)
T12 construct: purchased Eurofin/DiscoverX
T12 sequence (Q13873 27-1038): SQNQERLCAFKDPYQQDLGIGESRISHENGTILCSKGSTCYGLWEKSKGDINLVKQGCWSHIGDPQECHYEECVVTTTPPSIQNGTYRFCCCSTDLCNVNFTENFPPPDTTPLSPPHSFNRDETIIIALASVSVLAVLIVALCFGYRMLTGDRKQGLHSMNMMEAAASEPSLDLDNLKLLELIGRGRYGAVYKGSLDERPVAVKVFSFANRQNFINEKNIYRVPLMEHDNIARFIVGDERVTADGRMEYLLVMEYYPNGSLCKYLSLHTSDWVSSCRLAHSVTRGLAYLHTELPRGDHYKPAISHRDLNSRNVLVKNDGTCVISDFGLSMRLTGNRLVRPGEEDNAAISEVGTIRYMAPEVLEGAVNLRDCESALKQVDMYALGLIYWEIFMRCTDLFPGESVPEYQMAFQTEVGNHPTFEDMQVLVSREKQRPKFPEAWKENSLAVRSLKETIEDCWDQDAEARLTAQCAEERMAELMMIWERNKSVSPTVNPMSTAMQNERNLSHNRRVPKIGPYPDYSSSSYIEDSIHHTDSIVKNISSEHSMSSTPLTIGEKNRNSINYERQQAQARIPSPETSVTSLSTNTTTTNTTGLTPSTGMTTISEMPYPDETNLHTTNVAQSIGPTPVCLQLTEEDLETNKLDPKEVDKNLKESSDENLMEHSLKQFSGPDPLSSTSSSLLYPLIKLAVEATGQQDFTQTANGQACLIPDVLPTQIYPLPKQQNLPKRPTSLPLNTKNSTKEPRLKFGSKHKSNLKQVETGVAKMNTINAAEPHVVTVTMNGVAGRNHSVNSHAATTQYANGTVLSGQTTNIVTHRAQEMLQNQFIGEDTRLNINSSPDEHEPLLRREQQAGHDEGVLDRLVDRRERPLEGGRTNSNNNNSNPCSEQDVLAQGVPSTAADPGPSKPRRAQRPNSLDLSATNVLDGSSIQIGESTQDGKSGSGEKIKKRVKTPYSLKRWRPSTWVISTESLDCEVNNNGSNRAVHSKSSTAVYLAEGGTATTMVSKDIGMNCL
In short: as §1

[13] = biological target: T13, 384 kinases from the human genome (Homo sapiens, UniProt Q15303); conditions: kinase ERBB4 (Entrez ERBB4)
T13 construct: purchased Eurofin/DiscoverX
In short: as §1

[14] = biological target: T14, 384 kinases from the human genome (Homo sapiens, UniProt Q15746); conditions: kinase MYLK (Entrez MYLK)
T14 construct: purchased Eurofin/DiscoverX
In short: as §1

[15] = biological target: T15, 384 kinases from the human genome (Homo sapiens, UniProt Q16816); conditions: kinase PHKG1 (Entrez PHKG1)
T15 construct: purchased Eurofin/DiscoverX
T15 sequence (Q16816 whole entry): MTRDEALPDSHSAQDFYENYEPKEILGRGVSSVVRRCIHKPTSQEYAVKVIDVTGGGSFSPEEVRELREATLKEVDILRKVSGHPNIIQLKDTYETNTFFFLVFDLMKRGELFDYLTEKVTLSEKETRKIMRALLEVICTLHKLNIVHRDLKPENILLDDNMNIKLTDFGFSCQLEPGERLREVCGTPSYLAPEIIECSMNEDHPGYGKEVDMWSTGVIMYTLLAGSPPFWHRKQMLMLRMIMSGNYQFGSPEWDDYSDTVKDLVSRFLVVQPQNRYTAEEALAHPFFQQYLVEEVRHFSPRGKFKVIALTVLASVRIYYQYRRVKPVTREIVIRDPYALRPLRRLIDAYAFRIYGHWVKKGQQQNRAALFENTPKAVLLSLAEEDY
In short: as §1

[16] = biological target: T16, 384 kinases from the human genome (Homo sapiens, UniProt Q86Z02); conditions: kinase HIPK1 (Entrez HIPK1)
T16 construct: purchased Eurofin/DiscoverX
In short: as §1

[17] = biological target: T17, 384 kinases from the human genome (Homo sapiens, UniProt Q8IWQ3); conditions: kinase BRSK2 (Entrez BRSK2)
T17 construct: purchased Eurofin/DiscoverX
In short: as §1

[18] = biological target: T18, 384 kinases from the human genome (Homo sapiens, UniProt Q8NG66); conditions: kinase NEK11 (Entrez NEK11)
T18 construct: purchased Eurofin/DiscoverX
In short: as §1

[19] = biological target: T19, 384 kinases from the human genome (Homo sapiens, UniProt Q8TBX8); conditions: kinase PIP5K2C (Entrez PIP4K2C)
T19 construct: purchased Eurofin/DiscoverX
In short: as §1

[20] = biological target: T20, 384 kinases from the human genome (Homo sapiens, UniProt Q99558); conditions: kinase NIK (Entrez MAP3K14)
T20 construct: purchased Eurofin/DiscoverX
In short: as §1

[21] = biological target: T21, 384 kinases from the human genome (Homo sapiens, UniProt Q9BYT3); conditions: kinase STK33 (Entrez STK33)
T21 construct: purchased Eurofin/DiscoverX
T21 sequence (Q9BYT3 whole entry): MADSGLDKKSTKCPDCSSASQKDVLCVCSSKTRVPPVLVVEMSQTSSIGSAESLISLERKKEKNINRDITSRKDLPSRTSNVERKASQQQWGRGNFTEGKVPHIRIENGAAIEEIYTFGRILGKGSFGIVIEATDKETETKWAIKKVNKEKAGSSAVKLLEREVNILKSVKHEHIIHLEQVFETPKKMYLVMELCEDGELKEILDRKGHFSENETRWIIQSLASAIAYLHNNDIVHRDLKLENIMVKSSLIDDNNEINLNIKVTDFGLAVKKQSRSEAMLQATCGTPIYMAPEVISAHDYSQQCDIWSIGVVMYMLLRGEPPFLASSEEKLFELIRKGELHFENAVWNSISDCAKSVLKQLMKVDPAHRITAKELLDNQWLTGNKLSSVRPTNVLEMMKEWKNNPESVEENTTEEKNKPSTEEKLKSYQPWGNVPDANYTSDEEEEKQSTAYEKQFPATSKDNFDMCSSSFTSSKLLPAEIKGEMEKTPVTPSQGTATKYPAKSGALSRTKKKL
In short: as §1

[22] = biological target: T22, 384 kinases from the human genome (Homo sapiens, UniProt Q9BZL6); conditions: kinase PRKD2 (Entrez PRKD2)
T22 construct: purchased Eurofin/DiscoverX
In short: as §1

[23] = biological target: T23, 384 kinases from the human genome (Homo sapiens, UniProt Q9H1R3); conditions: kinase MYLK2 (Entrez MYLK2)
T23 construct: purchased Eurofin/DiscoverX
T23 sequence (Q9H1R3 whole entry): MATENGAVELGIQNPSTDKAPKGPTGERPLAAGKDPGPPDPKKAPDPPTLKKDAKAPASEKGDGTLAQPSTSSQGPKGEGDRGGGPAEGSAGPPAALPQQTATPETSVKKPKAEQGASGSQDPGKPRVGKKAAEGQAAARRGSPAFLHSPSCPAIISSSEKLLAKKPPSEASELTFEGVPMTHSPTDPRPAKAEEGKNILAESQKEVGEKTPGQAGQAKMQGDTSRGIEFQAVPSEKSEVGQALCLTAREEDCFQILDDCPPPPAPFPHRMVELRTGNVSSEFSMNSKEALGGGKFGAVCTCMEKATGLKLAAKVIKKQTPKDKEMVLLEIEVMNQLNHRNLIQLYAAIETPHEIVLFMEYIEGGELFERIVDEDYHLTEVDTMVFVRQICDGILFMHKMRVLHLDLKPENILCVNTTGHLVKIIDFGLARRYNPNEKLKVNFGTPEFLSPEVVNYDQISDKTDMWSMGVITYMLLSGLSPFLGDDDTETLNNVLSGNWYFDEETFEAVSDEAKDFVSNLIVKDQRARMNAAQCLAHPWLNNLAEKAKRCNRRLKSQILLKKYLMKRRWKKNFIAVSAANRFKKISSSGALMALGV
In short: as §1

[24] = biological target: T24, 384 kinases from the human genome (Homo sapiens, UniProt Q9NQU5); conditions: kinase PAK6 (Entrez PAK6)
T24 construct: purchased Eurofin/DiscoverX
In short: as §1

[25] = biological target: T25, 384 kinases from the human genome (Homo sapiens, UniProt Q9P1W9); conditions: kinase PIM2 (Entrez PIM2)
T25 construct: purchased Eurofin/DiscoverX
In short: as §1

[26] = biological target: T26, 384 kinases from the human genome (Homo sapiens, UniProt Q9UQM7); conditions: kinase CAMK2A (Entrez CAMK2A)
T26 construct: purchased Eurofin/DiscoverX
T26 sequence (Q9UQM7 whole entry): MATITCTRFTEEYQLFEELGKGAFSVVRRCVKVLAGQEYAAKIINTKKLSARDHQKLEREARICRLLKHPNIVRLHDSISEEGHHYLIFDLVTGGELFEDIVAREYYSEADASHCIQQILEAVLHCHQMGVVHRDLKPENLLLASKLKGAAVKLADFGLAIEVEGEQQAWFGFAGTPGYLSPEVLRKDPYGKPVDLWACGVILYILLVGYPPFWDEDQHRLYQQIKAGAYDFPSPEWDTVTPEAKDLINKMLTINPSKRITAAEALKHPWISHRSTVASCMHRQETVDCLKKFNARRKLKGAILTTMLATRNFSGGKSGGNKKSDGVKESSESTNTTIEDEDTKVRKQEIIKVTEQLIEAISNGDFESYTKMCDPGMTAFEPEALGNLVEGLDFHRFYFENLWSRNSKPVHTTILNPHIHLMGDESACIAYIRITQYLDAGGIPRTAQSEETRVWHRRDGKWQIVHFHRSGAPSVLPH
In short: as §1

CC(C)C(=O)N1CCN(c2ccc(NC(=O)c3cc4ccccc4o3)cc2Cl)CC1 [Compound 21]
Percent Control [1]: 100%
Percent Control [2]: 80%
Percent Control [3]: 82%
Percent Control [4]: 83%
KIT binding to its ligand affected ([5]; 10 µM of 21, compared to DMSO (100%)): more than 90%
Percent Control ([5]; kinase KIT (Entrez KIT)): 5.9%
Percent Control ([5]; kinase KIT-autoinhibited (Entrez KIT)): 93%
Percent Control [6]: 97%
Percent Control [7]: 98%
Percent Control [8]: 86%
Percent Control [9]: 100%
Percent Control [10]: 100%
Percent Control [11]: 92%
Percent Control [12]: 88%
Percent Control [13]: 91%
Percent Control [14]: 93%
Percent Control [15]: 87%
Percent Control [16]: 87%
Percent Control [17]: 97%
Percent Control [18]: 97%
Percent Control [19]: 65%
Percent Control [20]: 66%
Percent Control [21]: 100%
Percent Control [22]: 100%
Percent Control [23]: 80%
Percent Control [24]: 81%
Percent Control [25]: 100%
Percent Control [26]: 100%
